Seven compounds from patent US8575193B2, “N-substituted tetrahydroisoquinoline/isoindoline hydroxamic acid compounds” (4SC AG, priority 2008, dated 2013) can be followed below.

Structures are written as SMILES. Structures can show the parent of a compound that is named as a salt.

For data set [1], the target named is T1, rHDAC1 (Homo sapiens, UniProt Q13547).
T1 construct: FLAG; made in house
The data set can be described thus: rHDAC1 enzymatic assay (recombinant FLAG-HDAC1). The class given is biochemical. The note with it: FLAG-HDAC1 from HEK293; 6 μM Ac-NH-GGK(Ac)-AMC, 3 h at 30° C.; read-out: rHDAC1 [pIC50] (converted). From the text:
(§1) Human HDAC1 and HDAC6 fused with the FLAG epitope are stably expressed in HEK293 cells while human HDAC3 and HDAC8 fused with the FLAG epitope are overexpressed in baculo-virus infected insect (Sf21) cells. To ensure stability of FLAG-HDAC3 the SMRT protein is co-expressed in the corresponding insect cells. […] FLAG-HDAC3 and FLAG-HDAC8 are also purified by M2-agarose affinity chromatography after mass cultivation of the insect cells and cell lysis.
(§2) The HDAC enzyme activity assay is done as described by Wegener et al. (Chem. & Biol. 10, 61-68, 2003). Briefly 40 μl of a 1:100 dilution (=0.4 μl) nuclear HeLa extract (mixture of class I and II HDACs), 29 μl enzyme buffer (15 mM Tris HCl pH 8.1, 0.25 mM EDTA, 250 mM NaCl, 10% v:v glycerol) and 1 μl test compound are added to a well of a 96 well microtiter plate and reaction started by addition of 3 μl substrate (Ac-NH-GGK(Ac)-AMC; final concentration 25 μM and final volume […]). […] After incubation at room temperature for further 40 min, fluorescence is measured using a Wallac Victor 1420 multilabel counter (Ex 355 nm, Em 460 nm) for quantification of AMC (7-amino-4-methylcoumarin) generated by trypsine cleavage of the deacetylated peptide. […] The corresponding pIC50 values of the compounds for HDAC inhibitory activity are determined from the concentration-effect curves by means of non-linear regression (Graphpad Prism software).
(§3) The HDAC1, HDAC3 and HDAC6 enzymatic assays are done with slight modifications with recombinant FLAG-HDAC1 and FLAG-HDAC6 proteins isolated from HEK293 cell lysates or recombinant FLAG-HDAC3 isolated from insect cells, respectively. The HDAC8 enzymatic assay using recombinant FLAG-HDAC8 isolated from insect cells is done with a different substrate. About 4.5 ng/well FLAG-HDAC1 and 3.1 ng/well FLAG-HDAC6 (dependent on batches and specific activity) are incubated with 6 μM or 10 μM Ac-NH-GGK(Ac)-AMC substrate, respectively, for 3 h at 30° C. About 1.7 ng/well FLAG-HDAC3 is incubated with 6 μM Ac-NH-GGK(Ac)-AMC substrate for 2 h at 30° C., while approximately 130 ng/well FLAG-HDAC8 is incubated with 50 μM Ac-RHK(Ac)K(Ac)-AMC substrate for 3 h at 30° C. Termination of the reaction and all further steps are done as described for HeLa cell nuclear extracts as a source for HDAC enzymatic activity. The corresponding pIC50 values of the compounds for HDAC1, HDAC3, HDAC6 and HDAC8 inhibitory activity are determined from the concentration-effect curves by means of non-linear regression.

Data set [2] deals with T2, rHDAC6 (Homo sapiens, UniProt Q9UBN7).
T2 construct: FLAG; made in house
T2 sequence (Q9UBN7 1-1215): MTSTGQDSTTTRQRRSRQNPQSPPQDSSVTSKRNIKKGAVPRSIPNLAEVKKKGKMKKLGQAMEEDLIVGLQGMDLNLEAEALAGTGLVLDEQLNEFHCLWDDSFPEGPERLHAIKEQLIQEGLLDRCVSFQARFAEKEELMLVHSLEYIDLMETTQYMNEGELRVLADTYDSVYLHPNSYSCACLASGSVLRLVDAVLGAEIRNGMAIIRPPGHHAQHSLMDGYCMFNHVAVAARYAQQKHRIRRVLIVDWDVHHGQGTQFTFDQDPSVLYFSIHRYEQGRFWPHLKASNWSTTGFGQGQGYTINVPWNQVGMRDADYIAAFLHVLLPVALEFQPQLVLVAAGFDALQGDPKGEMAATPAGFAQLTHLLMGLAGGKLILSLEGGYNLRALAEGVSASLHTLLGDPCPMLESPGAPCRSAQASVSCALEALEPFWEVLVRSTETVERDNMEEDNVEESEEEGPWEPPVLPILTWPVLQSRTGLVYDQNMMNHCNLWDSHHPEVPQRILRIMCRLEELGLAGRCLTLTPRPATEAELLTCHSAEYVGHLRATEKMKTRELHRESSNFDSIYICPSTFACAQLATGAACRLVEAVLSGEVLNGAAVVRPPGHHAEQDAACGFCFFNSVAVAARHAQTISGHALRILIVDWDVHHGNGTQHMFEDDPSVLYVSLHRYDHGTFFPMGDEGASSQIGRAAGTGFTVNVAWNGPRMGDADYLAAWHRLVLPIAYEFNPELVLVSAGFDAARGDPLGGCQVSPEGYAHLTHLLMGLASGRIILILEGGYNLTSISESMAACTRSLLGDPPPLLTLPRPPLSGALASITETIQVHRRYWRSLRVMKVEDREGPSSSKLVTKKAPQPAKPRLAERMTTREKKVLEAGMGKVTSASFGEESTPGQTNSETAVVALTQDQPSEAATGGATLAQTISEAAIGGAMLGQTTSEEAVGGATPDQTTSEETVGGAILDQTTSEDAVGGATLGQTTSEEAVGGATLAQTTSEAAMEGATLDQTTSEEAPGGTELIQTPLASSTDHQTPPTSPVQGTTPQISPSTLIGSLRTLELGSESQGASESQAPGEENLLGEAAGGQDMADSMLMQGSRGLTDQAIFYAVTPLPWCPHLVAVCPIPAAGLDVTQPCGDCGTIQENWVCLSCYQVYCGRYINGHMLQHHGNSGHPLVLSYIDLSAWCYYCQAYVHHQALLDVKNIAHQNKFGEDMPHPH
The data set can be described thus: rHDAC6 enzymatic assay (recombinant FLAG-HDAC6). Conditions: FLAG-HDAC6 from HEK293; 10 μM Ac-NH-GGK(Ac)-AMC, 3 h at 30° C.; read-out: rHDAC6 [pIC50] (converted). Format: biochemical.
Excerpt: as §1, §2, §3

A short description of data set [3]: Cellular cytotoxicity assay (Alamar Blue/Resazurin), A549. Format: cell-based. The note with it: human, A549 cells; A549, 72 hours incubation, Resazurin; read-out: A549 Cytotoxicity [pIC50] (converted). How it is done:
(§4) The anti-proliferative activity of the compounds as described herein, is evaluated with various solid and hematological cancer cell lines using the Alamar Blue (Resazurin) cell viability assay (O'Brien et al, Eur J Biochem 267, 5421-5426, 2000). Resazurin is reduced to the fluorescent resorufin by cellular dehydrogenase activity, correlating with viable, proliferating cells. Test compounds are dissolved as 20 mM solutions in dimethylsulfoxide (DMSO) and subsequently diluted in semi-logarithmic steps. The cancer cell lines are seeded into 96 well flat bottom plates at respective cell densities in a volume of 200 μl per well to allow continuous proliferation during the experiment. 24 hours after seeding 1 μl each of the compound dilutions is added into each well of the 96 well plate. Wells containing untreated control cells are filled with 200 μl DMEM medium containing 0.5% v:v DMSO. The cells are then incubated with the substances for 72 hours at 37° C. in a humidified atmosphere containing 5% carbon dioxide. To determine the viability of the cells, 20 μl of a Resazurin solution (Sigma; 90 mg/l) are added. After 4 hours incubation at 37° C. the fluorescence is measured at an extinction of 544 nm and an emission of 590 nm. For the calculation of the cell viability the emission value from untreated cells is set as 100% viability and the emission rates of treated cells are set in relation to the values of untreated cells. Viabilities are expressed as % values. The corresponding pIC50 values of the compounds for cytotoxic activity are determined from the concentration-effect curves by means of non-linear regression.

The target in data set [4] is T3, rHDAC3 (Homo sapiens, UniProt O15379).
T3 construct: FLAG; made in house; host or cells: baculovirus-infected Sf21 insect cells
The data set can be described thus: rHDAC3 enzymatic assay (recombinant FLAG-HDAC3). Conditions: FLAG-HDAC3 from insect cells; 6 μM Ac-NH-GGK(Ac)-AMC, 2 h at 30° C.; read-out: rHDAC3 [pIC50] (converted). Format: biochemical.
Excerpt: as §1, §2, §3

The nature of data set [5]: Cellular cytotoxicity assay (Alamar Blue/Resazurin), HeLa. Format: cell-based. Conditions: human, HeLa cells, 72 hours incubation, Resazurin, read-out: HeLa Cytotoxicity [pIC50] (converted). How it is done: as §4
In general terms: Resazurin is reduced to fluorescent resorufin, in cell work by metabolically active cells.

For data set [6], the target named is T4, rHDAC8 (Homo sapiens, UniProt Q9BY41).
T4 construct: FLAG; made in house; host or cells: baculovirus-infected Sf21 insect cells
T4 sequence (Q9BY41 1-377): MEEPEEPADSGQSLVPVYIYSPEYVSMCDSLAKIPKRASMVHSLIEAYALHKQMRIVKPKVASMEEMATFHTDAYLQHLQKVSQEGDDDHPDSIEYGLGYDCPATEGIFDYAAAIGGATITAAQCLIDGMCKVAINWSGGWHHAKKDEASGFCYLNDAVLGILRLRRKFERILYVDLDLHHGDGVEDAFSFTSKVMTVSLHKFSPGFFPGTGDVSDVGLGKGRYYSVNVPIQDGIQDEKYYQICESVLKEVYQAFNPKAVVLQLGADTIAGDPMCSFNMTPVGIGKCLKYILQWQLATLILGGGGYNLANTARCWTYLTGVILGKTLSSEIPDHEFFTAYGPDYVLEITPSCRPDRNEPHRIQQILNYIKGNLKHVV
Kind of data set: rHDAC8 enzymatic assay (recombinant FLAG-HDAC8). The class given is biochemical. The note with it: FLAG-HDAC8 from insect cells; 50 μM Ac-RHK(Ac)K(Ac)-AMC, 3 h at 30° C.; read-out: rHDAC8 [pIC50] (converted).
Excerpt: as §1, §2, §3

The melting point is the temperature of the solid-liquid transition.

T3 sequence (O15379 whole entry): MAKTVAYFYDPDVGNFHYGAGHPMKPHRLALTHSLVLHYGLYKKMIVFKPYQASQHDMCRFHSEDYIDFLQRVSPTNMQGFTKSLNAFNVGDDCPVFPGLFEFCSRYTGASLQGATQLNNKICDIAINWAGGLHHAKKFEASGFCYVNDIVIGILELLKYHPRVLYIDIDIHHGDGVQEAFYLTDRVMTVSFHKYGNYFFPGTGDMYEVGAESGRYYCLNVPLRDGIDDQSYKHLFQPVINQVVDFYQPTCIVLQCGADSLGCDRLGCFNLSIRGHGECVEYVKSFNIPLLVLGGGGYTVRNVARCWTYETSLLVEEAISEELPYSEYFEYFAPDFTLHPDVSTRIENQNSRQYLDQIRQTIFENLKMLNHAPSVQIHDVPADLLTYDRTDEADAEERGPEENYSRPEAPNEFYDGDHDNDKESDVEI
T3 sequence (Q9Y618 whole entry partner): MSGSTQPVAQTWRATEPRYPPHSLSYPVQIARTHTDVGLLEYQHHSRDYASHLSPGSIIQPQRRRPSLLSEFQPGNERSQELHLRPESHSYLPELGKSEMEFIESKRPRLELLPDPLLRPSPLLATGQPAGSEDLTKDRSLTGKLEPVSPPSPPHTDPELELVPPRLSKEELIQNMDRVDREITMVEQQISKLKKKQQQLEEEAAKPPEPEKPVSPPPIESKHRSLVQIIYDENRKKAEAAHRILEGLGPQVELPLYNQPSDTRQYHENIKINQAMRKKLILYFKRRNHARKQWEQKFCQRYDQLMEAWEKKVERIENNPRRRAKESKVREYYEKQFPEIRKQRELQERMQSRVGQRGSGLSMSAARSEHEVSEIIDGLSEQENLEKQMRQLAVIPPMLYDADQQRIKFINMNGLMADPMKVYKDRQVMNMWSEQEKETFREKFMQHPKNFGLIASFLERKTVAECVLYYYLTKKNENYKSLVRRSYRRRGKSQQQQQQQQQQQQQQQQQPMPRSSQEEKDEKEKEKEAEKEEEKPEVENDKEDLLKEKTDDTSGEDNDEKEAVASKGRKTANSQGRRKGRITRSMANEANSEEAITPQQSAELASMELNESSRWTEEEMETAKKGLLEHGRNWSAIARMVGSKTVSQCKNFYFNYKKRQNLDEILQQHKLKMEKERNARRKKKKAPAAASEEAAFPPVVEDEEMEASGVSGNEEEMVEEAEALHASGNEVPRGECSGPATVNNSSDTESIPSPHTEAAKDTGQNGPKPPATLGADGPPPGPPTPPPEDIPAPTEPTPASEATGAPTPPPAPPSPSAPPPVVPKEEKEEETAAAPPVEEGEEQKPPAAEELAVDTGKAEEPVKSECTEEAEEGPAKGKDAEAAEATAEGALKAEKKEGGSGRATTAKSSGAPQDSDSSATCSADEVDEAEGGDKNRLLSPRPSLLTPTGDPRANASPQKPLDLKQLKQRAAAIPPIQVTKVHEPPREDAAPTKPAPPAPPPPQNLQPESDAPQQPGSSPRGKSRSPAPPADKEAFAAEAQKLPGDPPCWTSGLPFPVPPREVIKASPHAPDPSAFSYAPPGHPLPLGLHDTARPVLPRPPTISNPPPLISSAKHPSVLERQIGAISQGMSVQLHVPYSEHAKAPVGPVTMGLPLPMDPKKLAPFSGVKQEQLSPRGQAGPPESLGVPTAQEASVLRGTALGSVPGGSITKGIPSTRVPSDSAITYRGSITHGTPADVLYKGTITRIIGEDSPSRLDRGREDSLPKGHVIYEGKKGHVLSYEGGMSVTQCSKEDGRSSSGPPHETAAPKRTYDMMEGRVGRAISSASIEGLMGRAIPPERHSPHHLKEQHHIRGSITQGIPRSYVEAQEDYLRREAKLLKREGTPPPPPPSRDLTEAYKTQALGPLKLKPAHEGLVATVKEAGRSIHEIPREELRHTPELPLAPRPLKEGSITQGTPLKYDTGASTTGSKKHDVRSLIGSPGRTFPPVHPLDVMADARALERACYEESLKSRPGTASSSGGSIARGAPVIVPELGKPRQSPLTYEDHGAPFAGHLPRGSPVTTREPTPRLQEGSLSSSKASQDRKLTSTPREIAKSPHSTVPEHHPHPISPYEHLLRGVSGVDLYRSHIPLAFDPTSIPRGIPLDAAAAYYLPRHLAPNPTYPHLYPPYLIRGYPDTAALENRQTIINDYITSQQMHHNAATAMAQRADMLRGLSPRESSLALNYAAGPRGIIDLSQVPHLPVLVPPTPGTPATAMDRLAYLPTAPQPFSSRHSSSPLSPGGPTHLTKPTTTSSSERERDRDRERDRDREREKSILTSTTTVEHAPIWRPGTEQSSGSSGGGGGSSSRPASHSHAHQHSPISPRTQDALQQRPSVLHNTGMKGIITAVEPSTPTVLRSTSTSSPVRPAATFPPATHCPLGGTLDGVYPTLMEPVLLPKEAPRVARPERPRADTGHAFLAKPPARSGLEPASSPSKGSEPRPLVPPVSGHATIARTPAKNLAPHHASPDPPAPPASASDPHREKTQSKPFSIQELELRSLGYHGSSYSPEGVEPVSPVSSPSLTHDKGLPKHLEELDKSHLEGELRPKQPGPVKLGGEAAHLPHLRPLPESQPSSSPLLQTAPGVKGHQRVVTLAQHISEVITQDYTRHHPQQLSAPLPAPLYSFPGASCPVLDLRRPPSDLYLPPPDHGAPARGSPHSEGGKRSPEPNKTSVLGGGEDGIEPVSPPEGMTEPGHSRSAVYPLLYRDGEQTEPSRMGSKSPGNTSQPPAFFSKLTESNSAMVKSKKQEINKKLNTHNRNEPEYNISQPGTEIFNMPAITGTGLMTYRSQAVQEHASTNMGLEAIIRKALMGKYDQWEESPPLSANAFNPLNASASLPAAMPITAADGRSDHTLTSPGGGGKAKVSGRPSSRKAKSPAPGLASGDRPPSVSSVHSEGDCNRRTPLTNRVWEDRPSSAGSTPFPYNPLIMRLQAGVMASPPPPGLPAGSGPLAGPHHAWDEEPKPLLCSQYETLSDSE
T1 sequence (Q13547 whole entry): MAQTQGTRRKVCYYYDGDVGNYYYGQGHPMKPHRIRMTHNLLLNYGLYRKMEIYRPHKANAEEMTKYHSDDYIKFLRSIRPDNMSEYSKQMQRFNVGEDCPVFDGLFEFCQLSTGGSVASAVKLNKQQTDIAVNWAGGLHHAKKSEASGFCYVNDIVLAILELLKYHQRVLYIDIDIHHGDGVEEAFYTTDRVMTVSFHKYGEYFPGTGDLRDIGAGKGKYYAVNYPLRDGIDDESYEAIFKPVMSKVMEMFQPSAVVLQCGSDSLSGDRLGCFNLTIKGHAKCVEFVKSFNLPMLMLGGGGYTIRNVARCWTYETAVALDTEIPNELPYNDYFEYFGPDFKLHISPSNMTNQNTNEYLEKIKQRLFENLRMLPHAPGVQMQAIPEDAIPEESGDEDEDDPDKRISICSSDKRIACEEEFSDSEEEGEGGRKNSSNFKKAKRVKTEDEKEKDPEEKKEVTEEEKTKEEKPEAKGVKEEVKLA

`O=C(NO)c1ccc2c(c1)CCN(C(=O)Cc1ccccn1)C2` [Example 2, N-Hydroxy-2-(pyridin-2-ylacetyl)-1,2,3,4-tetrahydroisoquinoline-6-carboxamide hydrochloride]: the IC50 in data set [1] was 10 to 100 µM; in data set [2], 0.001 to 0.1 µM. For the same compound, in data set [3], the IC50 at 72 h was greater than 100 µM.
`O=C(NO)c1ccc2c(c1)CN(C(=O)c1cc3ccccc3cn1)C2` [Example 29, N-Hydroxy-2-(isoquinolin-3-ylcarbonyl)isoindoline-5-carboxamide]: the melting point lay within 208 to 210 °C.
The same measure, in the same setting: in the case of `O=C(NO)c1ccc2c(c1)CN(C(=O)c1ccc3ccccc3n1)C2` [Example 27, N-Hydroxy-2-(quinolin-2-ylcarbonyl)isoindoline-5-carboxamide] it was 162 to 166 °C.
The same measure, in the same setting: next, `O=C(NO)c1ccc2c(c1)CN(C(=O)c1ccc3ncccc3c1)C2` [Example 28, N-Hydroxy-2-(quinolin-6-ylcarbonyl)isoindoline-5-carboxamide]: 208 to 210 °C.
The same measure, in the same setting: in the case of `CC(=O)N1CCc2ccc(C(=O)NO)cc2C1` [Example 25, 2-Acetyl-N-hydroxy-1,2,3,4-tetrahydroisoquinoline-7-carboxamide] it was 177 to 181 °C.
Turning to `O=C(NO)c1ccc2c(c1)CCN(C(=O)Cc1ccccn1)C2` [Example 14, N-Hydroxy-2-(pyridin-2-ylacetyl)-1,2,3,4-tetrahydroisoquinoline-6-carboxamide hydrochloride], the IC50 was 10 to 100 µM in data set [4] and 1 to 10 µM in data set [6]. Also, the IC50 at 72 h in data set [5] is 1 to 100 µM.
In turn, `Cc1nccn1CCC(=O)N1CCc2ccc(C(=O)NO)cc2C1.Cl` showed a melting point of 63 °C.
